# Laboratory results as given in the supplement of paper PMC10307832.
# Key:
# Test in all cases: relative viability (nuclei count vs DMSO), 5 days (fraction); higher = more cells survive
# [1] = compound: CCn1c(-c2nonc2N)nc2cnc(Oc3cccc(NC(=O)c4ccc(OCCN5CCOCC5)cc4)c3)cc21
# Procedure, shortened: (§1)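 MetaXpress counted nuclei in 4× images of lung cancer cell lines that had been fixed, permeabilised and Hoechst-stained in one step. Before that, cells in 1536-well plates were kept overnight at 37 °C, pinned with five √10-spaced library-drug doses on vehicle-anchored plates, and cultured 5 days without medium change. Viability takes treated-well nuclei over vehicle-well nuclei and uses the median across plates. Plates were accepted only at control CV below 25% and at least one doubling.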
# [2] = compound: CCC1=CN=CN=C1N2CCN(CC2)CC3=NC4=C(N3)C=C(C=C4)C(F)(F)F
# Procedure, shortened: as §1
# [3] = compound: N=C1NC(=O)/C(=C/c2ccc(O)cc2)S1 [Mirin]
# Procedure, shortened: as §1
Cell Line,relative viability ([1]; 0.04 µM),relative viability ([1]; 0.1265 µM),relative viability ([1]; 0.4 µM),relative viability ([1]; 1.265 µM),relative viability ([1]; 4 µM),relative viability ([2]; 0.04 µM),relative viability ([2]; 0.1265 µM),relative viability ([2]; 0.4 µM),relative viability ([2]; 1.265 µM),relative viability ([2]; 4 µM),relative viability ([3]; 0.25 µM),relative viability ([3]; 0.7906 µM),relative viability ([3]; 2.5 µM),relative viability ([3]; 7.906 µM),relative viability ([3]; 25 µM)
201T,1.06,0.961,0.811,0.778,0.834,0.98,0.956,0.97,0.869,1.05,1.03,1.03,0.974,1.05,1.02
A549,1.24,1.01,0.742,0.116,0.116,0.978,0.868,0.921,0.934,0.89,1.01,0.982,1.05,0.913,0.953
A-427,1.23,0.936,0.727,0.587,0.444,0.885,0.961,0.857,0.808,0.887,0.983,0.716,1.02,0.961,1.03
ABC-1,1.09,0.906,0.545,0.452,0.447,0.946,0.807,0.816,0.742,0.828,0.996,0.806,0.949,0.759,0.487
BEN,0.92,0.816,0.514,0.362,0.452,0.836,0.929,0.928,0.594,0.675,0.857,1.01,1.2,0.812,0.549
CAL-12T,1.33,1.13,0.927,0.479,0.654,0.985,0.941,0.958,0.974,1.01,1.07,0.861,1.02,0.982,1.23
COR-L23,1.1,0.846,0.497,0.252,0.19,0.985,0.989,0.937,0.932,0.922,1.04,1.13,1.09,1.06,1.02
COR-L 105,0.919,0.776,0.761,0.43,0.443,0.875,0.932,0.978,0.746,0.906,1.09,1.12,1.06,1.02,0.833
Calu-6,1.05,1.02,0.841,0.604,0.549,1,0.986,0.953,0.898,0.925,1.02,1.07,1.06,0.923,0.987
ChaGo-K-1,1.14,1.02,0.801,0.833,0.879,1.01,0.961,0.932,0.961,0.97,0.986,0.916,0.93,0.887,0.833
EBC-1,1.24,1.01,0.913,0.904,0.797,1.08,1.01,0.986,0.946,0.996,1.09,1.19,1.05,0.987,0.665
EKVX,1.24,0.957,0.932,0.87,0.855,1.03,0.806,0.933,0.782,1.04,0.962,0.905,1.09,0.925,0.986
EMC-BAC-2,0.94,0.862,0.43,0.405,0.343,0.77,0.877,0.925,0.802,1.15,0.993,0.907,1.01,0.857,0.971
EPLC-272H,1.26,1.01,0.873,0.705,0.74,0.801,0.979,0.87,0.797,0.793,0.944,,0.945,0.762,0.721
H3255,1.14,1.01,0.898,0.67,0.732,0.97,0.95,0.913,0.874,0.919,0.982,0.962,0.992,0.936,1
HARA,1.11,0.782,0.563,0.258,0.28,0.891,0.902,0.863,0.654,1.08,1.09,0.803,0.918,0.939,0.916
HCC-15,1.12,0.964,0.844,0.77,0.911,0.999,0.946,0.934,0.897,1.04,1.06,0.798,0.979,0.884,0.953
HCC-44,1.01,1.05,0.565,0.326,0.321,0.961,0.972,0.968,1.04,0.982,0.987,1.1,0.991,0.925,1.18
HCC-78,1.2,1.08,0.75,0.955,1.16,0.875,0.894,0.888,0.746,0.756,0.887,0.838,1.11,0.894,1.09
HCC-366,1.01,1.03,0.836,0.0886,0.098,1,0.979,0.988,,1.05,1.03,0.868,0.982,1.03,0.947
HCC-827,1.02,0.961,0.911,0.821,0.756,1.05,1.04,0.998,0.942,0.988,1.03,1.09,1.01,1.02,1.19
HOP-62,1.13,1.02,0.899,0.549,0.537,1.03,0.946,0.95,0.936,1.06,0.979,1.07,0.983,0.856,1.1
IA-LM,1.34,1.06,0.998,0.952,1.02,0.839,0.96,0.891,0.931,0.89,0.962,1.07,0.928,0.653,1.18

Cell Line,relative viability ([1]; 0.04 µM),relative viability ([1]; 0.1265 µM),relative viability ([1]; 0.4 µM),relative viability ([1]; 1.265 µM),relative viability ([1]; 4 µM),relative viability ([2]; 0.04 µM),relative viability ([2]; 0.1265 µM),relative viability ([2]; 0.4 µM),relative viability ([2]; 1.265 µM),relative viability ([2]; 4 µM),relative viability ([3]; 0.25 µM),relative viability ([3]; 0.7906 µM),relative viability ([3]; 2.5 µM),relative viability ([3]; 7.906 µM),relative viability ([3]; 25 µM)
LC-2-ad,1.06,0.906,0.654,0.525,0.524,1,0.947,0.973,0.871,0.92,1.02,0.848,0.964,0.824,1.04
LCLC-97TM1,1.37,1.1,,0.899,1.03,0.849,0.95,1,1,0.95,1.1,0.706,1.13,0.621,0.677
LCLC-103H,1.09,0.981,0.783,0.705,0.775,1.02,0.927,0.928,0.841,1.11,0.99,0.977,1.05,0.929,1.07
LK-2,1.23,1.19,0.774,0.686,0.843,0.989,1.01,0.832,0.718,0.912,0.881,0.686,1.03,0.647,0.534
LOU-NH91,1.08,0.854,0.664,0.454,0.523,0.894,0.954,0.963,0.839,1.01,0.914,0.738,0.981,0.912,1.21
LU99A,1.02,0.694,0.67,0.536,0.504,1.14,0.904,0.902,0.821,0.92,0.997,0.783,0.922,0.864,0.857
LXF-289,1.07,1.12,0.965,0.858,0.762,1.1,0.944,0.953,1.05,0.99,0.997,1.1,0.999,1.06,1.13
NCI-H23,1.21,1,0.567,0.674,0.589,0.852,0.918,0.812,0.742,0.954,1,,0.907,0.819,0.907
NCI-H322M,1.22,1.17,0.882,0.656,0.72,1.05,0.95,0.935,0.729,1.01,0.99,0.867,0.967,1.19,0.944
NCI-H358,0.934,0.919,0.577,0.829,0.619,1.06,0.866,0.858,0.806,0.915,0.888,0.901,0.998,0.9,0.714
NCI-H441,1.26,1.12,0.541,0.807,0.727,1.09,0.926,0.896,0.877,1.09,1.11,1.01,1.1,0.886,0.993
NCI-H460,1.06,0.945,0.852,0.337,0.36,0.998,0.956,0.971,0.926,0.972,1.04,0.954,1.02,0.992,1.02
NCI-H520,1.24,1.05,0.978,0.567,0.511,0.953,0.902,0.962,0.746,1.02,1,0.882,1.02,0.808,0.709
NCI-H522,1.13,0.815,0.74,0.576,0.698,0.833,1.03,0.931,0.799,0.919,0.979,0.9,1.06,0.753,0.655
NCI-H596,1.01,0.869,0.799,0.865,0.83,1.01,0.935,0.882,0.736,1.08,0.996,1,1.02,1.02,0.973
NCI-H647,1.08,0.707,0.705,0.458,0.55,0.891,0.915,0.828,0.711,1.03,1.11,0.864,0.975,0.918,0.904
NCI-H650,1.1,0.761,0.391,0.359,0.417,0.776,0.958,0.994,0.918,0.958,1.03,0.737,0.929,,1.13
NCI-H661,0.998,0.969,0.957,0.82,0.611,0.996,0.973,0.955,0.967,0.971,0.988,1.09,1.03,0.974,1.01
NCI-H727,1.21,1.15,0.767,0.986,0.947,1.05,0.909,0.981,0.603,0.91,1.14,0.918,1.06,1.27,1.15
NCI-H838,0.854,0.517,0.409,0.406,0.319,0.997,0.941,0.942,0.828,0.957,0.999,0.93,1.02,1.02,0.959
NCI-H1299,1.03,0.931,0.84,0.767,0.681,1.04,1.01,0.986,1.01,1.01,0.999,1.09,1.03,1,1.16
NCI-H1355,1.04,1,0.776,0.632,0.487,1.01,0.935,0.918,0.931,1.04,0.997,0.982,0.949,0.942,1.08
NCI-H1395,1.13,0.837,0.769,0.469,0.563,0.837,0.86,0.943,0.769,0.892,0.948,,0.964,0.925,0.841
